The results in this text go back to patent publication US6747013B2, “Therapy for cellular accumulation in chronic inflammatory diseases” (The Regents of the University of California, priority 1995, dated 2004).

Numbered stars: 1 amine (or outer) side, 2 acyl side, 3 side chain; on linkers, the order of the positions; unused ones are H or OH. Bridge positions count the residues as written; N and C are the ends. Square brackets hold non-standard residues; d marks the D form. Peptide text beside a SMILES is read from it. I, II: the chains in the order shown. Actinocin(9to1) = Cc1c2oc3c(C)ccc(C(=O)[*:1])c3nc-2c(C(=O)[*:2])c(N)c1=O; NMeV = CN[C@H](C(=O)O)C(C)C; Sar = CNCC(=O)O

The test system of one experiment is p53 in RA FLS. Particulars: 8-9 hr after stimulating with H2O2 for 100 min; n=3; medium alone 10.7±2.4%. The protocol:
(§1) The intracellular location of p53 protein is an important determinant of its functional capabilities. It is known that p53 can reside in the cytoplasm (generally bound to hsc70) but is transported to the nucleus after DNA damage or proliferative signals. […] Immunohistochemistry was then performed on cultured RA FLS to determine the subcellular localization of p53.

Experiment [1] has as its system p53 in dermal fibroblasts. Particulars: after exposure to H2O2; before 5±11%. Here is the method: as §1
The next experiment deals with Rheumatoid arthritis FLS. The experiment can be described thus: 3HdTr nuclear fragmentation assay. Type of experiment: cell-based, human. Particulars: FIG. 8; cytokines or antibodies 8 h, act D 4 h. The protocol: Rheumatoid arthritis FLS were seeded at 10^4 cells/well in a 96-well microtiter plate. The cells were cultured at 37° C. and 5% CO2 for 2 days. On the third day, 10 uCi/ml/well of 3HdTR was added to each well and incubated overnight. The cells were then treated with different concentrations of cytokines or antibodies for 8 h or actinomycin D (act D) for 4 h and then lysed by 2 rounds of freeze-thaw cycles. Lysed cells and media were aspirated onto fiber glass filters using a cell harvester. The filters were washed to remove unincorporated nucleotides and counted in a liquid scintillation counter. All points were done in triplicates. Percent specific fragmentation was calculated as follows: (S-E)×100/S, where E=retained cpms on the filter in the presence of cytokine and S=retained cpms on the filter in the medium control (Matzinger, P., J. Immunological Methods 145:185-92, 1991).
(§2) The presence of CD68-negative apoptotic cells in the synovial lining prompted an analysis of the regulation of FLS apoptosis in vitro. […] Osteoarthritis and rheumatoid arthritis-derived FLS were equally susceptible to induction of DNA strand breaks.

The subject of experiment [2] is fibroblast-like synoviocytes (FLS). The experiment can be described thus: ISEL assay of apoptosis (DNA fragmentation) in cultured fibroblast-like synoviocytes. The class given is cell-based, human. Particulars: for % apoptotic cells Without IFN-gamma (100 U/ml) / % apoptotic cells With IFN-gamma: FLS incubated with mediator for 16 h, n = 3, ISEL assay; for % apoptotic cells Without IFN-gamma (100 U/ml): 'Without IFN-gamma (100 U/ml)' [sic]; for % apoptotic cells With IFN-gamma: concentrations: IL-1 1 ng/ml, TNF-alpha 100 ng/ml, act D 0.5 ug/ml, anti-fas 80 ng/ml; for DNA fragmentation in FLS (ISEL assay), in words: cultured FLS in chamber slides, agent alone; for effect of combination on FLS apoptosis, in words: in combination with other apoptosis-inducing factors. The protocol:
Fragmented DNA was detected in cell nuclei using a modification of previously described methods (Wood et a., Neuron., 11:621-32, 1993 and Wijsman et al., J. Histochem. Cytochem. 41:7-12, 1993). Frozen section of synovial tissue (5-6 microns thick) were placed onto poly-L-lysine coated slides and air dried for at least 2 hours. The tissue sections were then fixed with EtOH/Acetic acid 3:1 for 10 min at room temperature and washed with buffer 1 (see below) for 5 min. The slides were then air dried 1 or at least 2 h. 10-15 ul of DNA polymerase mix were added to each section and incubated at room temperature for 1 h. The sections were washed with buffer 1 (see below) for 5 min at room temperature followed by a wash in buffer 2 for 5 min.
Alkaline phosphatase conjugated anti-digoxigenin antibody was diluted to 1:500 in buffer 2 and 15-20 ul was applied to each specimen. The slides were incubated at 37° C. for 2 hrs in a humidified chamber and then washed with buffer 1 for 5 min. They were then equilibrated with buffer 3 for 5 min and the color reagent (NBT+BCIP) was added to the specimens. After about 30 min the slides were washed with distilled water, counterstained with eosin or methyl green and dehydrated with graded alcohol washes. The developing reagent gave a dark purple color for positive signals. Buffers: 10× DNA polymerase buffer=0.5M Tris.Cl pH7.5, 0.1M MgCl2, 1 mM DTT; 10× nucleotide mix=1 mM each of dATP, dCTP and dGTP, 0.4 mM dTTP; DNA polymerase mix=10× DNA pol buffer (2 ul), […] nucleotide mix (2 ul); 100 uM dig-11-dUTP (0.5 ul), Klenow polymerase (2 ul (2 U)), Water (13.5 ul); Buffer 1=100 mM Tris.Cl pH7.5, 150 mM NaCl; Buffer 2=0.5% Blocking agent in buffer 1, Buffer 3=100 […]. Quantification of ISEL assay. A semiquantitative scale was used to estimate the degree of ISEL staining in tissue sections that had been counterstained with methyl green to distinguish ISEL-positive and -negative cells. Four areas were reviewed by a blinded investigator: the synovial intimal lining, the sublining, blood vessels, and lymphoid aggregates. The extent of staining in the area was estimated and scored as using a previously established semiquantitative scale.
Synovial cells were isolated by enzymatic dispersion of synovial tissues as previously described (Alvaro-Gracia, et al., supra). Briefly, the tissues were minced and incubated with 1 mg/ml collagenase in serum-free DMEM (Gibco, Grand Island, N.Y.) for 2 h at 37° C., filtered through a nylon mesh, extensively washed, and cultured in DMEM supplemented with 10% fetal calf serum (FCS) (Gibco, endotoxin content <0.006 ng/ml), penicillin, streptomycin, and L-glutamine in a humidified 5% Co2 atmosphere. After overnight culture, non-adherent cells were removed and adherent cells were cultivated in DMEM plus 10% FCS.
At confluence, cells were trypsinized, split at a 1:3 ratio, and recultured in medium. Synoviocytes were used from passages 3 through 9 in these experiments, during which time they were a homogeneous population of fibroblast-like synoviocytes (FLS)(<1% CD11b, <1% phagocytic, and <1% Fc-gamma RII receptor positive).
as §2

The next experiment deals with Fas on FLS. Put plainly: Surface Fas expression on FLS by flow cytometry (FACS). Type of experiment: cell-based, human. Particulars: IL-1beta 1 ng/ml or TNF-alpha 100 ng/ml for 16 to 24 hours; pooled RA and OA FLS. Here is the method:
FLS (1-2×105) were cultured in 6-well plastic dishes (Costar, Cambridge, Mass.) in DMEM-10% FCS. Cells were harvested with 5 mM EDTA at 4° C. and stained with anti-fas or control antibody (Kamiya Biomedical Co., Thousand Oaks, Calif.) as previously described (Alvaro-Gracia, et al., supra). Phycoerythrin conjugated Fab2 anti-mouse IgG (Tago Inc. Burlingame, Calif.) was used as a secondary antibody. An isotype matched MAb was used as negative control. Induction of Fas expression by cytokines was calculated from the mean fluorescence channels (MFC) as follows: relative MFC=(MF(Ccytokine-MFClgG)/(MFCmedium-MFClgG). A cell was defined a positive if its MFC was greater than 98% of cells stained with the control antibody. Statistical analysis. Data were analyzed using the paired Student t test and are presented as mean+SEM.
Since anti-fas antibody induced DNA fragmentation in FLS, fas expression was determined on these cells using flow cytometry. Many FLS constitutively expressed Fas protein on the cell surface (see FIG. 9 for a representative experiment (n=7; 4 rheumatoid arthritis and 3 osteoarthritis)). There were no significant differences between osteoarthritis and rheumatoid arthritis FLS with regard to the level of surface Fas expression on resting synoviocytes. […]
(In general: Flow cytometry measures light scatter and fluorescence of single cells or particles in a stream.)

The test system of another experiment is mouse air pouch tissue. The experiment can be described thus: Mouse air pouch model of inflammation with TUNEL staining. The class given is in vivo. Particulars: 3 ml of 1% carrageenan into pouch, two days after injection. The protocol:
In this standard model, mice were lightly anesthetized with halothane and 3 ml of sterile filtered air was injected subcutaneously into the back, forming a pocket. This procedure was repeated twice over the next 5 days to form a mature pouch. Subsequently, 3 ml of 1% carrageenan was injected into the pouches. Carrageenan is a highly inflammatory natural substance that, when injected into body cavities, induces leukocyte recruitment, cytokine gene expression, and release of a variety of small molecule mediators. Two days after carrageenan injection, the mice were sacrificed and the pouches were removed. The excised pouches were fixed in formaldehyde and histologic sections were prepared. The sections were subsequently stained using the TUNEL technique (Wood, et al., Neuron, 11:621, 1993) to identify cells with fragmented DNA that were undergoing apoptosis.

In the case of `OO` [hydrogen peroxide], in the experiment with p53 in RA FLS, the “% of FLS with prominent nuclear p53 staining” value is 70.7±12.8%. Also, the “% of dermal fibroblasts with nuclear p53 staining” value in experiment [1] is 75±17%.
TNF-alpha: in the experiment on Rheumatoid arthritis FLS, the “DNA fragmentation in cultured FLS (3HdTr nuclear fragmentation), in words” value (from here on “DNA fragmentation in cultured FLS”) is “caused DNA fragmentation”. For the same molecule, in experiment [2], the “% apoptotic cells Without IFN-gamma (100 U/ml)” value is reported as 3 ± 2 %; the “% apoptotic cells With IFN-gamma” value was determined as 35 ± 1%; the “DNA fragmentation in FLS (ISEL assay), in words” value (from here on “DNA fragmentation in FLS”) is recorded as “caused significant DNA fragmentation”; the “effect of combination on FLS apoptosis, in words” value is “additive with actinomycin D”. The “surface Fas expression on FLS, in words” value in the experiment on Fas on FLS is “significantly increased surface Fas expression”.
Take carrageenan: in the experiment with mouse air pouch tissue, the “TUNEL-positive cells in air pouch tissue, in words” value is “large foci of TUNEL-positive cells were present” and the “inflammatory infiltration of the air pouch, in words” value is “an inflammatory exudate was present”.
Consider “IL-1: Recombinant hIL-1 beta, cytokine purchased from Genzyme”, for which the “DNA fragmentation in cultured FLS” value in the experiment with Rheumatoid arthritis FLS was “caused DNA fragmentation”. Also, in experiment [2], the “% apoptotic cells Without IFN-gamma (100 U/ml)” value is recorded as 0 ± 2 %; the “% apoptotic cells With IFN-gamma” value is given as 50 ± 2%; the “DNA fragmentation in FLS” value is given as “caused significant DNA fragmentation”. For the same molecule, the “surface Fas expression on FLS, in words” value in the experiment with Fas on FLS was “slight increase, the difference did not reach statistical significance”.
On to `Cc1c2oc3c(C)ccc(C(=O)N[C@@H]4C(=O)N[C@H](C(C)C)C(=O)N5CCC[C@H]5C(=O)N(C)CC(=O)N(C)[C@@H](C(C)C)C(=O)O[C@@H]4C)c3nc-2c(C(=O)N[C@@H]2C(=O)N[C@H](C(C)C)C(=O)N3CCC[C@H]3C(=O)N(C)CC(=O)N(C)[C@@H](C(C)C)C(=O)O[C@@H]2C)c(N)c1=O` [actinomycin D, reference compound] (I: T[dV]P[Sar][NMeV] / II: T[dV]P[Sar][NMeV]; ester I:1-I:C, II:1-II:C; linker I:N-II:N via Actinocin(9to1)), for which the “DNA fragmentation in cultured FLS” value in the experiment with Rheumatoid arthritis FLS was “caused DNA fragmentation”. Moreover, in experiment [2], the “% apoptotic cells Without IFN-gamma (100 U/ml)” value worked out at 6 ± 3 %; the “% apoptotic cells With IFN-gamma” value turned out to be 37 ± 5%; the “DNA fragmentation in FLS” value was “caused significant DNA fragmentation”.

B1: IFN-gamma: recombinant human IFN-gamma, cytokine purchased from Genzyme (protein, UniProt P01579 24-161, looked up)
Interferon gamma: QDPYVKEAENLKKYFNAGHSDVADNGTLFLGILKNWKEESDRKIMQSQIVSFYFKLFKNFKDDQSIQKSVETIKEDMNVKFFNSNKKKRDDFEKLTNYSVTDLNVQRKAIHELIQVMAELSPAAKTGKRKRSQMLFRG
Regarding B1, in experiment [2], the “% apoptotic cells Without IFN-gamma (100 U/ml)” value worked out at 6 ± 2%; the “DNA fragmentation in FLS” value is reported as “minimal effect”; the “effect of combination on FLS apoptosis, in words” value is given as “significantly reduced FLS apoptosis”.
